# Measurements from PubChem BioAssay (NCI).
#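 Five compound concentrations were applied to cells in 96-well plates for 48 hours; endpoints were derived by simple linear interpolation of the resulting dose-response curve. Abbreviation: GI50, concentration required for 50% inhibition of growth. TGI: concentration producing complete growth inhibition.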
# Columns and labels:
# Experiment in all cases: NCI tumour cell line growth inhibition, 48 h
# NCI/ADR-RES ovarian = test system: NCI/ADR-RES ovarian
# T-47D breast = test system: T-47D breast
# SF-268 CNS = test system: SF-268 CNS
# NCI-H23 lung = test system: NCI-H23 lung
# A549 NSCLC = test system: A549 NSCLC
# COLO 205 colon = test system: COLO 205 colon
# KM12 colon = test system: KM12 colon
# K-562 leukemia = test system: K-562 leukemia
# HCT-15 colon = test system: HCT-15 colon
# SK-OV-3 ovarian = test system: SK-OV-3 ovarian
SMILES,TGI (NCI/ADR-RES ovarian) [µM],TGI (T-47D breast) [µM],TGI (SF-268 CNS) [µM],TGI (NCI-H23 lung) [µM],TGI (A549 NSCLC) [µM],TGI (COLO 205 colon) [µM],TGI (KM12 colon) [µM],TGI (K-562 leukemia) [µM],TGI (HCT-15 colon) [µM],TGI (SK-OV-3 ovarian) [µM],GI50 (NCI/ADR-RES ovarian) [µM],GI50 (T-47D breast) [µM],GI50 (SF-268 CNS) [µM],GI50 (NCI-H23 lung) [µM],GI50 (A549 NSCLC) [µM],GI50 (COLO 205 colon) [µM],GI50 (KM12 colon) [µM],GI50 (K-562 leukemia) [µM],GI50 (HCT-15 colon) [µM],GI50 (SK-OV-3 ovarian) [µM]
CC(=O)N(C(=O)CC(=O)N1N=C(C)C(N=Nc2cccc([N+](=O)[O-])c2)C1=O)c1ccc(Cl)cc1 (stereo not given),> 10,> 10,> 10,> 10,> 10,> 10,> 10,> 10,> 10,> 10,,,,,,,,,,
CN1N=C(c2ccncc2)OC1c1ccc(C(F)(F)F)cc1 (stereo not given),> 100,> 100,> 100,> 100,> 100,> 100,> 100,> 100,> 100,> 100,,,,,,,,,,
COc1ccc(C(CC(=O)c2cccs2)C(=O)c2ccc3c(c2)OCO3)cc1 (stereo not given),> 100,> 100,> 100,> 100,> 100,> 100,> 100,> 100,> 100,> 100,,,,,,,,,,
O=[N+]([O-])c1ccc(CSC2=C(c3ccc(Cl)cc3)S/C(=C3\SC(SCc4ccc([N+](=O)[O-])cc4)=C(c4ccc(Cl)cc4)S3)S2)cc1,> 100,> 100,> 100,> 100,> 100,> 100,> 100,> 100,> 100,> 100,,,,,,,,,,
CCOC(=O)/C(C(=O)c1ccc[nH]1)=C1/CCCN1C,> 100,> 100,> 100,> 100,> 100,> 100,> 100,> 100,> 100,> 100,,,,,,,,,,
CC(C)=CC(=O)c1[nH]c2ccccc2c1CC(=O)NCCc1cnc[nH]1,> 100,> 100,> 100,> 100,> 100,> 100,> 100,> 100,> 100,> 100,,,,,,,,,,
CCC(CCCC[C@H]1CC[C@@H]2CC(=O)C[C@H]12)OC (stereo not given in full),> 100,> 100,> 100,> 100,> 100,> 100,> 100,> 100,> 100,> 100,,,,,,,,,,
C(/C=C(\Nc1ccccc1)c1ccc2ccccc2c1)=Nc1ccccc1,3.93,12.9,29.5,6.63,18.4,4.1,12.2,4.22,5.61,11.5,,,,,,,,,,
CN(CCNC(=O)c1nn(C)c2c1Cc1ccccc1-2)CCNC(=O)c1nn(C)c2c1Cc1ccccc1-2,70.4,91.5,29.4,32.3,33.3,24.8,43.7,29.6,34.4,43.7,,,,,,,,,,
C[N+]1(CC[N+]2(C)CCCC2c2cccnc2)CCCC1c1cccnc1 (stereo not given),> 100,> 100,> 100,> 100,> 100,> 100,> 100,> 100,> 100,> 100,,,,,,,,,,
CCCCCCCC(=O)NC(C)(C)C(=O)NCC(=O)NC(CC(C)C)C(=O)NC(C)(C)C(=O)NCC(=O)NCC(=O)NC(CC(C)C)C(=O)NC(C)(C)C(=O)NCC(=O)NC(C(=O)NC(CO)CC(C)C)C(C)CC (stereo not given),9.12,7.23,7.5,7.49,8.01,7.18,5.15,9.11,10.3,7.61,,,,,,,,,,
COc1ccc(/C=N/n2c(-c3ccccc3)n[nH]c2=O)c(OC)c1,> 73.9,> 100,71.9,> 100,> 100,> 100,> 100,> 100,> 100,> 74.6,,,,,,,,,,
O=C(c1ccccc1)c1nn(-c2cccc(Cl)c2)c2nc3nc(-c4ccccc4)cc(=O)n3nc12,> 25,> 25,> 25,> 25,> 25,> 25,> 25,> 25,> 25,> 25,> 25,> 25,> 25,> 25,> 25,> 25,> 25,> 25,> 25,> 25
C#C[C@]1(O)CC[C@H]2[C@@H]3CCC4=C/C(=N/OC(=O)c5cccc6cc7ccccc7nc56)CC[C@@H]4[C@H]3CC[C@@]21CC,> 100,> 100,> 100,> 100,> 100,> 100,> 100,> 100,> 100,> 100,,,,,,,,,,
CSC(SC)=C(C#N)C(=O)Nc1ccc(Cl)cc1,> 100,85.3,> 100,> 100,> 100,35.9,> 100,> 100,> 100,> 100,,,,,,,,,,
c1ccc(-c2cc(-c3ccccc3)nc(-c3ccncc3)c2)cc1,> 100,> 100,> 100,> 100,> 100,> 100,> 100,> 100,> 100,> 100,,,,,,,,,,
O=C1OCOC2(CCCC2)C1c1ccccc1 (stereo not given),> 100,> 100,> 100,> 100,> 100,> 100,> 100,> 100,> 100,> 100,,,,,,,,,,
Cc1ccc(NC(c2ccccc2)P(=O)(c2ccccc2)c2ccccc2)cc1 (stereo not given),> 100,> 100,> 100,> 100,> 100,> 100,> 100,> 100,> 100,> 100,,,,,,,,,,
O=C(O)COc1c(Cl)cc(Cl)c(C(c2c(Cl)cc(Cl)c(OCC(=O)O)c2Cl)C(Cl)(Cl)Cl)c1Cl,> 100,> 100,> 100,62.3,83.8,> 100,> 100,> 100,76,47.2,,,,,,,,,,
CCN(CC)C(=O)N[C@@H](CC(C)C)C(=O)NC,> 100,> 100,> 100,> 100,> 100,> 100,> 100,> 100,> 100,> 100,,,,,,,,,,
CNC(=O)OC1/C(C)=C\C(C)C(O)C(OC)CC(C)CC2=C(OC)C(=O)C=C(C2=O)N(C)C(=O)/C(C)=C/C=C\C1OC (stereo not given),62,6.14,26.1,15,43.7,7.9,26.3,12.5,17.5,30,,,,,,,,,,
